Reference: patent publication US20090258041A1, “Protection of Oxidizable Agents” (priority 2005, published 2009)

Test: Stabilization of Vitamin C: spectral absorption at 265 nm after exposure to air with storage in the dark
Type: physicochemical
Conditions: Vitamin C combined with Nanotope AO7 (encapsulated AO7 1.00%, ascorbic acid 1.00% in water phase), phosphate buffer pH 6, exposure to air, 20° C.
Protocol: Aqueous solution of Vitamin C (concentration=40.5 mM), buffered at pH=6 (Phosphate buffer, previously evacuated and then flushed with Nitrogen to remove as much Oxygen as possible). a) Standalone Vitamin C: 0.7 mM b) Combination Vitamin C/Nanotope AO7: [table] Absorption measurement with Perkin Elmer Lambda 16; cuvette length d=0.1 cm Irradiation chamber Atlas CPS+; temperature of measurement=35° C. Spectral absorption of Vitamin C (Ascorbic Acid) at its maximum wavelength (Imax=265 nm); maximum extinction at time after exposure to air with storage in the dark. Experiments were done at 20° C.

protection of Vitamin C (maximum extinction at 265 nm): efficiently protected
Compound: O=C1O[C@H]([C@@H](O)CO)C(O)=C1O [Vitamin C, ascorbic acid]
